Measurements taken from patent US6686382B2, “Sulfonamides and derivatives thereof that modulate the activity of endothelin” (Encysive Pharmaceuticals Inc., priority 1999, dated 2004).
pIC50: −log10 of the molar value.

What was measured:
CYP2C19 = molecular target: T1, CYP2C19 (Homo sapiens, UniProt P33261); test: Cytochrome P450 enzyme assay, CYP2C19 (Gentest Supersomes, fluorometric); type: in vitro ADME; conditions: human recombinant enzyme, mean IC50; read-out: CP450 2C19 IC50
T1 construct: purchased Gentest Corporation P259
T1 sequence (P33261 whole entry): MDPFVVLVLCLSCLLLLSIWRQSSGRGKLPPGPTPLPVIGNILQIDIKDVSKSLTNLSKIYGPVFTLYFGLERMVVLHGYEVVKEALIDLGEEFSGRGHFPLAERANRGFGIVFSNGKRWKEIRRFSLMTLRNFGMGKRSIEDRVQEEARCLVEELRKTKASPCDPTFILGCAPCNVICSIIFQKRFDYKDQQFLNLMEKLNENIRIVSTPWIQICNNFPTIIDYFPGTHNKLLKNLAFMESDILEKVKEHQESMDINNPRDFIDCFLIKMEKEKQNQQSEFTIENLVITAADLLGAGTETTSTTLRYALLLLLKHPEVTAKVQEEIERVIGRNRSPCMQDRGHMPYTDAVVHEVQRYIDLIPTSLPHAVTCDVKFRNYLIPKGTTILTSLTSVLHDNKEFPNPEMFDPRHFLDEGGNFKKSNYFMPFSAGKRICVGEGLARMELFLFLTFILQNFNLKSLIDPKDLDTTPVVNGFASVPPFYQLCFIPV
Protocol: (§1) In vitro assays to determine the concentration of the compounds provided herein required for 50% inhibition of substrate metabolism (IC50) by different human cytochrome P450 enzymes (2C9, 2C19, 3A4) were conducted using human recombinant cytochrome P450 enzyme assays, developed by Gentest Corporation. These assays contain Gentest Supersomes™ (specific human cytochrome P450 enzyme, co-expressed with P450 reductase and cytochrome b5), a NADPH regenerating system, substrate and a concentration range of the compounds provided herein. The fluorescent product was the measured end point for these assays. IC50s were calculated using a four-parameter logistic equation with the bottom fixed at 0% inhibition and the top fixed at 100% inhibition. (Values are the mean IC50±SD when n is greater than 1.)
(§2) Assays were conducted in 96-well microtiter plates using fluorometric assays developed by Gentest Corporation. The 12 wells in each row were used for one inhibition curve. Wells 1 to 8 contained serial 1:3 dilutions of the test compound. Wells 9 to 12 contained no inhibitor and wells 11 and 12 were blanks for background fluorescence (stop solution was added before the enzyme). All concentration curves were performed in duplicate. Incubations were initiated by the addition of enzyme and substrate to the pre-warmed reaction mixture. After a specific incubation period, the reaction was stopped by the addition of stop solution. Metabolite production per well was determined by measuring fluorescence using a fluorescent plate reader. Detailed experimental procedures for each enzyme are listed below. See, generally, Methodology of a high throughput method for measuring cytochrome P450 inhibition (Gentest Corporation, Technical Bulletin); Crespi, C. L.; Miller, V. P.; and Penman, B. W. (1997) Anal. Biochem. 248:188-190; and Geungerich, F. P. (1997) Adv. Pharm. 43:7-35.
A 0.2 ml/well reaction mixture containing 1 pmol CYP2C19 (P259), 1.3 mM NADP^+, 3.3 mM glucose-6-phosphate, 3.3 mM magnesium chloride, 0.4 U/ml glucose-6-phosphate dehydrogenase and 25 μM 3-cyano-7-ethoxycoumarin in 50 mM potassium phosphate (pH 7.4), was incubated at 37° C. for 45 minutes. Tranylcypromine, a standard inhibitor of CYP2C19, was serially diluted from the highest concentration of 500 μM and acted as a positive control. The test compound was serially diluted from the highest concentration of 100 μM. After incubation, the reaction was stopped by the addition of 75 μl stop solution (80% acetonitrile/20% 0.5 M Tris base) and fluorescence/well was read within 1 hour using a Spectra Fluor (Tecan) fluorescent plate reader. […]
(§3) The “% inhibition” was calculated as follows: [formula]
(§4) Concentration versus % inhibition curves were constructed in Prism (GraphPad, Inc.). The data was analyzed using “Top & Bottom Fixed” routine. […]

CYP3A4 = molecular target: T2, CYP3A4 (Homo sapiens, UniProt P08684); test: Cytochrome P450 enzyme assay, CYP3A4 (Gentest Supersomes, fluorometric); type: in vitro ADME; conditions: human recombinant enzyme, mean IC50; read-out: CP450 3A4 IC50
T2 construct: purchased Gentest Corporation P202
T2 sequence (P08684 2-503 limits assumed): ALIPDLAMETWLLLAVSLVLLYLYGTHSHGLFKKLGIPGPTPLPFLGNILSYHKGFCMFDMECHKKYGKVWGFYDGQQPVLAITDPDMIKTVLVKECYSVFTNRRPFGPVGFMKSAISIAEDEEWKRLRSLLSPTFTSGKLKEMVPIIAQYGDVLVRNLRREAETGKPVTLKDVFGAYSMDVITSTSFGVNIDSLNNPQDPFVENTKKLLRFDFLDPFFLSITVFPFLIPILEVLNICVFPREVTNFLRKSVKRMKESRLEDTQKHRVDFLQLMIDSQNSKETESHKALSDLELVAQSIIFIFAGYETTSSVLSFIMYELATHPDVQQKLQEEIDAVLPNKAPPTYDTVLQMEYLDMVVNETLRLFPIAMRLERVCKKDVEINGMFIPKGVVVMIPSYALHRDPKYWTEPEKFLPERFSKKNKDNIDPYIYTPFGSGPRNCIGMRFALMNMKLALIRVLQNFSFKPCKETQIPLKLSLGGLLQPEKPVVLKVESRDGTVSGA
Protocol: as §1, §2
A 0.2 ml/well reaction mixture containing 4 pmol CYP3A4 (P202), 1.3 mM NADP^+, 3.3 mM glucose-6-phosphate, 3.3 mM magnesium chloride 0.4 U/ml glucose-6-phosphate dehydrogenase, 0.01% pluronic F68, and 50 μM resorufin benzyl ether in 200 mM potassium phosphate (pH 7.4), was incubated at 37° C. for 30 minutes. Ketoconazole, a standard inhibitor of 3A4, was serially diluted from the highest concentration of 5 μM and acted as a positive control. […] After incubation, the reaction was stopped by the addition of 75 μl stop solution (80% acetonitrile/20% 0.5 M Tris base) and fluorescence/well was measured within 1 hour using a Spectra Fluor (Tecan) fluorescent plate reader. […]
as §3, §4

SMILES | pIC50 (CYP2C19) | pIC50 (CYP3A4)
Cc1cc2c(cc1CC(=O)c1sccc1S(=O)(=O)Nc1onc(C)c1Cl)OCO2 [N-(4-chloro-3-methyl-5-isoxazolyl)-2-{[3,4-(methylenedioxy)-6-methylphenyl)acetyl]-thiophene-3-sulfonamide, reference compound] | 6.70 | 7.05
CC(=O)c1cc(C)cc(C)c1NC(=O)c1sccc1S(=O)(=O)Nc1onc(C)c1C [Compound 7, N-(2-acetyl-4,6-dimethylphenyl)-3-{[(3,4 dimethyl-5-isoxazolyl)amino]sulfonyl}-2-thiophenecarboxamide] | 3.90 | 4.55
Cc1cc(C)c(NC(=O)c2sccc2S(=O)(=O)Nc2onc(C)c2Cl)c(Cl)c1 [Compound 34, N-(2-chloro-4,6-dimethylphenyl)-3-{[(4-chloro-3-methyl-5-isoxazolyl)amino]sulfonyl}2-thiophenecarboxamide] | 5.34 | 5.41
Cc1cc(C)c(NC(=O)c2sccc2S(=O)(=O)Nc2onc(C)c2Cl)c(S(C)(=O)=O)c1 [Compound 42, 3-{[(4-chloro-3-methyl-5-isoxazolyl)amino]sulfonyl)-N-[2,4-dimethyl-6-(methylsulfonyl)phenyl]-2-thiophenecarboxamide] | 5.21 | 4.86
